{
  "source": "patent US7825268B2",
  "about": "“Alkoxylactones, alkoxylactams and alkoxythiolactams for controlling processes based on microbial interaction” (Henkel AG & Co. KGaA, priority 2003, dated 2010)",
  "test_system": "Pseudomonas aeruginosa ATCC 15442",
  "test": "Biofilm test on glass surfaces (microscope slides, SafraninO staining)",
  "format": "cell-based",
  "conditions": "6 hours incubation; for biofilm reduction (relative to the control without active substance): first range finding experiments (FIG. 1)",
  "procedure": "(b) Use of Alkyloxylactones for the Reduction of Biofilms on Glass Surfaces.\nThe germ Pseudomonas aeruginosa ATCC 15442 is cultivated at 37° C. on Caso-Agar overnight. A CFU (Colony Eorming Unit) of solid medium is incubated in 50 ml Caso-broth at 37° C. for 7 hours and 150 rpm (1. passage). 100 μl germs from the washed liquid culture are carried over into 50 ml fresh Caso-nutrient medium and incubated at 37° C. for approximately 16 hours and 150 rpm. (2. Passage). A germ count of 10^6 CFU/ml is used from this second passage in the biofilm test. For the biofilm test, the germs in the above-mentioned concentration, together with a diluted complete medium (20 times with DGHM-water diluted TBY), are pipetted into a micro-titration plate (6-position chamber), which is used as the miniaturized biofilm test system. The active substances under test are added in the desired concentration to the mixture (3 ml). As controls, first, attempts were made with active substances, but without germs, as the active substances could already have an inherent color (negative control); secondly, diluted complete medium with germs, but without the active substances were also used as controls. In addition, 1 sterile glass plate (microscope slide), size 18×18, on the surface of which the biofilm growth is investigated, is placed into each of the 6-position chambers. For each starting material, triple determinations are carried out, i.e. three glass slides are investigated per starting material. The 6-position plates are shaken for 6 or 24 hours at 30° C. and 60 rpm. After the predetermined incubation times, 1 ml per starting material are removed for germ count determination, diluted in trypton-NaCl solution and plated out on Caso-Agar. The resulting plates are incubated for 24 hours at 37° C. and then counted. The slide glasses are taken out of the 6-positions to be dried at room temperature and then dyed in new 6-positions with 3 ml 0.01% SafraninO-solution (made up in sterile water) for 15 minutes. The colorant solution is then siphoned off, non-bound colorant is removed with water from the slide glasses and the colored slide glasses dried. The colored and dried surfaces of the slide glasses are scanned and evaluated using Corel Draw paint 9. In order to be able to subtract the background value (of the glass) from the measured value, additional untreated slide glasses are also scanned.",
  "key": {"[1]": {"conditions": "100 ppm, DMSO control = 100% (FIG. 2)"}, "[2]": {"conditions": "50 ppm and 100 ppm, control without active substance = 100% (FIG. 1)"}},
  "data": [
    {"smiles": "CCCCCCCOC1C(=O)OCC1(C)C", "note": "(stereo not drawn) [Example 188, Heptyloxypantolactone]", "values": [
      {"measurement": "biofilm reduction (with respect to the DMSO control)", "setting": "[1]", "value": "more than 40%"}
    ]},
    {"smiles": "CCCCCCCCO[C@H]1C(=O)OCC1(C)C", "note": "[Example H33, a-Octyloxy-D-(−)-pantolactone]", "values": [
      {"measurement": "biofilm reduction (relative to the control without active substance)", "setting": "100 ppm", "value": "more than 30%"}
    ]},
    {"smiles": "CCCCOC1CCOC1=O", "note": "(stereo not drawn) [Example H99, butyloxybutyrolactone]", "values": [
      {"measurement": "effect on biofilm formation", "setting": "[2]", "value": "only a moderate effect"}
    ]},
    {"smiles": "CCCCOC1C(=O)OCC1(C)C", "note": "(stereo not drawn) [Example H123, butyloxypantolactone]", "values": [
      {"measurement": "effect on biofilm formation", "setting": "[2]", "value": "only a moderate effect"}
    ]},
    {"smiles": "CCCCCCCCOC1CCOC1=O", "note": "(stereo not drawn) [Example H128, a-Octyloxy-γ-butyrolactone]", "values": [
      {"measurement": "biofilm reduction (relative to the control without active substance)", "setting": "100 ppm", "value": "approximately 40%"},
      {"measurement": "reduction in biofilm inhibition", "setting": "on increasing the concentration of active substance, it precipitated out, result not shown", "value": 20, "unit": "%"}
    ]},
    {"smiles": "CCCCCCCCCCCCCCCCOC1CCOC1=O", "note": "(stereo not drawn) [hexadecylbutyrolactone, a-hexadecyloxy-γ-butyrolactone]", "values": [
      {"measurement": "effect on biofilm formation", "setting": "[1]", "value": "best biofilm reduction"}
    ]},
    {"smiles": "O=C1OCCC1O", "note": "(stereo not drawn) [hydroxybutyrolactone, Hydroxybutyrolactone, reference compound]", "values": [
      {"measurement": "effect on biofilm formation", "setting": "[1]", "value": "did not show any notable effect"}
    ]},
    {"smiles": "CC1(C)COC(=O)C1O", "note": "(stereo not drawn) [pantolactone, Pantolactone, reference compound]", "values": [
      {"measurement": "effect on biofilm formation", "setting": "[1]", "value": "did not show any notable effect"}
    ]}
  ]
}
